From US20240228489A1, “POSITIVE ALLOSTERIC MODULATORS OF THE MUSCARINIC ACETYLCHOLINE RECEPTOR M1” (Vanderbilt University, priority 2021, published 2024)

Columns and labels:
human mAChR M1 [1] = target: T1, human mAChR M1 (Homo sapiens, UniProt P11229); test: mAChR M1 cell-based functional assay (calcium mobilization), PAM mode: increase in the EC20 acetylcholine response
T1 sequence (P11229 1-460): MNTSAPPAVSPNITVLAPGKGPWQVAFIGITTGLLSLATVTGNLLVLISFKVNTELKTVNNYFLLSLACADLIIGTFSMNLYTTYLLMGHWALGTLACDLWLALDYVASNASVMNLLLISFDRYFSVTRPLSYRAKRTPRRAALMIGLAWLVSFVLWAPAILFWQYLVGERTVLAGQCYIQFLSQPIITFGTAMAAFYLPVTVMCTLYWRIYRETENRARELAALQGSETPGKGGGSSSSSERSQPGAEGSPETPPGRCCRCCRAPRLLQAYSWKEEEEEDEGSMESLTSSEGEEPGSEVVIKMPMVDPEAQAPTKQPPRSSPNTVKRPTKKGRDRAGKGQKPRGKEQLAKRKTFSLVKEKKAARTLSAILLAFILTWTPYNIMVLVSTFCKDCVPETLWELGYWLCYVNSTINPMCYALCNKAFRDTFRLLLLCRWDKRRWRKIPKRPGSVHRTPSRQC
Summary of the method: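 CHO-K1 cells stably expressing hM1, Fluo-4 loaded, read by FDSS calcium flux at 1 Hz. Compound (11-point 1:3 CRC) added at 4 s, EC20 acetylcholine at 144 s, EC80 at 230 s. PAM activity taken as concentration-dependent increase in EC20 ACh response, fitted by four-parameter logistic for EC50/Emax.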

human mAChR M1 [2] = target: T1, human mAChR M1; test: mAChR M1 cell-based functional assay (calcium mobilization), agonist mode: compound alone, Emax relative to acetylcholine maximum; settings: for EC50 / Agonist Activity Human M1 EC50: human mAChR M1
Summary of the method: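 CHO-K1 cells stably expressing hM1 were loaded with Fluo-4 AM, and calcium flux was read as fluorescence ratio. Compound was added alone from an 11-point 1:3 curve, and the agonist response was fitted with a four-parameter logistic. Emax is expressed relative to the acetylcholine maximum.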

[3] = relative to the maximum for acetylcholine

SMILES | EC50 (human mAChR M1 [1]) | Emax (human mAChR M1 [1]) | EC50 (human mAChR M1 [2]) | Emax (human mAChR M1 [2]; [3]) | Agonist Activity Human M1 EC50 (human mAChR M1 [2]) | PAM Activity Emax (human mAChR M1 [1]) | Agonist Activity Emax (human mAChR M1 [2]; [3])
[2H]C([2H])([2H])Oc1cnc2c(c1)C(=O)N(Cc1ccc(-c3ccc(OC)c4nn(C)cc34)cc1F)C2([2H])[2H] [Compound 142, 6-(2-fluoro-4-(7-methoxy-2-methyl-2H-indazol-4-yl)benzyl)-3-(methoxy-d3)-6,7-dihydro-5H-pyrrolo[3,4-b]pyridin-5-one-7,7-d2] | 215 nM | 81% | 6060 nM | 13% |  |  | 
[2H]C1([2H])c2ncccc2C(=O)N1Cc1c(F)cc(-c2ccc(C(F)(F)F)c3c2cnn3C([2H])([2H])[2H])cc1F [Compound 244, 6-(2,6-difluoro-4-(1-(methyl-d3)-7-(trifluoromethyl)-1H-indazol-4-yl)benzyl)-6,7-dihydro-5H-pyrrolo[3,4-b]pyridin-5-one-7,7-d2] | > 10000 nM | 34% |  | 2% | Inactive |  | 
[2H]C1([2H])c2ncccc2C(=O)N1Cc1ccc(-c2cc3cn(C)nc3cc2F)cc1 [Compound 15, 6-(4-(6-fluoro-2-methyl-2H-indazol-5-yl)benzyl)-6,7-dihydro-5H-pyrrolo[3,4-b]pyridin-5-one-7,7-d2] | 1770 nM | 51% |  | 2% | Inactive |  | 
[2H]C1([2H])c2ncccc2C(=O)N1Cc1ccc(-c2ccc(C)c3nn(C([2H])([2H])[2H])cc23)cc1C [Compound 58, 6-(2-methyl-4-(7-methyl-2-(methyl-d3)-2H-indazol-4-yl)benzyl)-6,7-dihydro-5H-pyrrolo[3,4-b]pyridin-5-one-7,7-d2] | 614 nM | 83% |  | 4% | Inactive |  | 
[2H]C1([2H])c2ncc(OCCc3ccccn3)cc2C(=O)N1Cc1c(F)cc(-c2cccc3nn(C([2H])([2H])[2H])cc23)cc1F [Compound 126, 6-(2,6-difluoro-4-(2-(methyl-d3)-2H-indazol-4-yl)benzyl)-3-(2-(pyridin-2-yl)ethoxy)-6,7-dihydro-5H-pyrrolo[3,4-b]pyridin-5-one-7,7-d2] | 423 nM | 65% | ≥ 10000 nM | 14% |  |  | 
[2H]C1([2H])c2ncccc2C(=O)N1Cc1ccc(-c2ccc(OCC3CCCO3)c3nn(C)cc23)cc1F (stereo not drawn) [Compound 147, 6-(2-fluoro-4-(2-methyl-7-((tetrahydrofuran-2-yl)methoxy)-2H-indazol-4-yl)benzyl)-6,7-dihydro-5H-pyrrolo[3,4-b]pyridin-5-one-7,7-d2] | 1100 nM | 79% | ≥ 10000 nM | 12% |  |  | 
[2H]C1([2H])c2ncccc2C(=O)N1Cc1c(F)cc(-c2cccc3c2cnn3C(F)F)cc1F [Compound 60, 6-(4-(1-(difluoromethyl)-1H-indazol-4-yl)-2,6-difluorobenzyl)-6,7-dihydro-5H-pyrrolo[3,4-b]pyridin-5-one-7,7-d2] | 693 nM |  |  |  | Inactive | 34% | 4%
[2H]C1([2H])c2ncccc2C(=O)N1Cc1ccc(-c2cnc3nn(C([2H])([2H])[2H])cc3c2)cc1F [Compound 118, 6-(2-fluoro-4-(2-(methyl-d3)-2H-pyrazolo[3,4-b]pyridin-5-yl)benzyl)-6,7-dihydro-5H-pyrrolo[3,4-b]pyridin-5-one-7,7-d2] | 527 nM | 66% | ≥ 10000 nM | 16% |  |  | 
[2H]C1([2H])c2ncccc2C(=O)N1Cc1c(F)cc(-c2ccc(Cl)c3nn(C)cc23)cc1OCC(C)C [Compound 215, 6-(4-(7-chloro-2-methyl-2H-indazol-4-yl)-2-fluoro-6-isobutoxybenzyl)-6,7-dihydro-5H-pyrrolo[3,4-b]pyridin-5-one-7,7-d2] | 2380 nM | 83% |  | 2% | Inactive |  | 
[2H]C1([2H])c2ncccc2C(=O)N1Cc1c(F)cc(-c2cccc3nn(C([2H])([2H])[2H])cc23)cc1C(F)(F)F [Compound 226, 6-(2-fluoro-4-(2-(methyl-d3)-2H-indazol-4-yl)-6-(trifluoromethyl)benzyl)-6,7-dihydro-5H-pyrrolo[3,4-b]pyridin-5-one-7,7-d2] | 1360 nM | 54% |  | 2% | Inactive |  | 

The remaining lines, values ahead:

EC50 (human mAChR M1 [1]) | Emax (human mAChR M1 [1]) | EC50 (human mAChR M1 [2]) | Emax (human mAChR M1 [2]; [3]) | Agonist Activity Human M1 EC50 (human mAChR M1 [2]) | PAM Activity Emax (human mAChR M1 [1]) | Agonist Activity Emax (human mAChR M1 [2]; [3]) | SMILES
1300 nM | 73% | > 10000 nM | 2% |  |  |  | [2H]C1([2H])c2ncccc2C(=O)N1Cc1c(F)cc(-c2cccc3c2cnn3CC)cc1F [Compound 65, 6-(4-(1-ethyl-1H-indazol-4-yl)-2,6-difluorobenzyl)-6,7-dihydro-5H-pyrrolo[3,4-b]pyridin-5-one-7,7-d2]
1270 nM | 74% | ≥ 10000 nM | 15% |  |  |  | [2H]C1([2H])c2ncccc2C(=O)N1Cc1ccc(-c2ccc(OC(C)COC)c3nn(C)cc23)cc1F (stereo not drawn) [Compound 143, 6-(2-fluoro-4-(7-((1-methoxypropan-2-yl)oxy)-2-methyl-2H-indazol-4-yl)benzyl)-6,7-dihydro-5H-pyrrolo[3,4-b]pyridin-5-one-7,7-d2]
248 nM | 86% | 5980 nM | 54% |  |  |  | [2H]C1([2H])c2ncccc2C(=O)N1Cc1c(F)cc(-c2ccc(F)c3nn(C)cc23)cc1C1CC1 [Compound 205, 6-(2-cyclopropyl-6-fluoro-4-(7-fluoro-2-methyl-2H-indazol-4-yl)benzyl)-6,7-dihydro-5H-pyrrolo[3,4-b]pyridin-5-one-7,7-d2]
88 nM | 46% |  | 1% | Inactive |  |  | [2H]C1([2H])c2ncccc2C(=O)N1Cc1c(F)cc(-c2cc(Cl)c3nn(C)cc3c2)cc1F [Compound 89, 6-(4-(7-chloro-2-methyl-2H-indazol-5-yl)-2,6-difluorobenzyl)-6,7-dihydro-5H-pyrrolo[3,4-b]pyridin-5-one-7,7-d2]
476 nM | 84% |  | 5% | Inactive |  |  | [2H]C1([2H])c2ncccc2C(=O)N1Cc1c(F)cc(-c2ccc(F)c3nn(C)cc23)cc1F [Compound 36, 6-(2,6-difluoro-4-(7-fluoro-2-methyl-2H-indazol-4-yl)benzyl)-6,7-dihydro-5H-pyrrolo[3,4-b]pyridin-5-one-7,7-d2]
159 nM | 48% |  | 2% | Inactive |  |  | [2H]C1([2H])c2ncccc2C(=O)N1Cc1c(F)cc(-c2cc(C(F)F)cc3nn(C)cc23)cc1F [Compound 81, 6-(4-(6-(difluoromethyl)-2-methyl-2H-indazol-4-yl)-2,6-difluorobenzyl)-6,7-dihydro-5H-pyrrolo[3,4-b]pyridin-5-one-7,7-d2]
125 nM | 89% |  | 3% | Inactive |  |  | [2H]C([2H])([2H])Oc1cnc2c(c1)C(=O)N(Cc1c(F)cc(-c3cccc4nn(C)cc34)cc1F)C2([2H])[2H] [Compound 63, 6-(2,6-Difluoro-4-(2-methyl-2H-indazol-4-yl)benzyl)-3-(methoxy-d3)-6,7-dihydro-5H-pyrrolo[3,4-b]pyridin-5-one-7,7-d2]
654 nM | 51% |  | 2% | Inactive |  |  | [2H]C1([2H])c2ncccc2C(=O)N1Cc1c(F)cc(-c2cc(Cl)cc3nn(C([2H])([2H])[2H])cc23)cc1F [Compound 85, 6-(4-(6-chloro-2-(methyl-d3)-2H-indazol-4-yl)-2,6-difluorobenzyl)-6,7-dihydro-5H-pyrrolo[3,4-b]pyridin-5-one-7,7-d2]
718 nM | 84% | 7740 nM | 22% |  |  |  | [2H]C1([2H])c2ncccc2C(=O)N1Cc1c(F)cc(-c2cn(C)c(=O)c3nn(C([2H])([2H])[2H])cc23)cc1F [Compound 91, 4-(3,5-difluoro-4-((5-oxo-5,7-dihydro-6H-pyrrolo[3,4-b]pyridin-6-yl-7,7-d2)methyl)phenyl)-6-methyl-2-(methyl-d3)-2,6-dihydro-7H-pyrazolo[3,4-c]pyridin-7-one]
488 nM | 85% | > 10000 nM | 9% |  |  |  | [2H]C1([2H])c2ncccc2C(=O)N1Cc1ccc(-c2ccc(F)c3nn(C)cc23)cc1C [Compound 48, 6-(4-(7-fluoro-2-methyl-2H-indazol-4-yl)-2-methylbenzyl)-6,7-dihydro-5H-pyrrolo[3,4-b]pyridin-5-one-7,7-d2]
337 nM | 81% | ≥ 10000 nM | 31% |  |  |  | [2H]C1([2H])c2ncccc2C(=O)N1Cc1c(F)cc(-c2ccc(O[C@@H](C)COC)c3nn(C)cc23)cc1F [Compound 171, (S)-6-(2,6-difluoro-4-(7-((1-methoxypropan-2-yl)oxy)-2-methyl-2H-indazol-4-yl)benzyl)-6,7-dihydro-5H-pyrrolo[3,4-b]pyridin-5-one-7,7-d2]
